Test system: guard cells of x-luc1 and x-luc9 ecto-luciferase lines
Assay: Ecto-luciferase luminescence imaging of extracellular ATP in epidermal peels
Format: cell-based, Arabidopsis thaliana
Conditions: 10 μM
From the text: Ecto-luciferase Construct and Plant Transformation: The nucleotide sequence for the 24 amino acid, cleavable signal peptide from the Brassica pollen coat protein, S-locus cysteine-rich protein (SCR13; AF195626) was used to target luciferase for secretion (Schopfer et al., 1999). The signal peptide was incorporated at the N-terminus of the luciferase gene by PCR and the SCR13 signal peptide modified luciferase PCR product was then ligated into the binary vector pLBJ21. This construct was then transformed into Agrobacterium tumefaciens strain GV3101 (pMP90) and then transformed into Arabidopsis plants (Col-0) using the floral dipping method (Clough and Bent, 1998). Transgenic plants were selected by planting on solidified Murashige and Skoog (MS) medium (4.3 g/L Murashige and Skoog salts (Sigma), 0.5% (w/v) MES, and 1.0% (w/v) agar, raised to pH 5.7 with 5 M KOH) containing 50 μg/mL kanamycin. Segregation of T3 generation on kanamycin plates was analysed in order to obtain homozygous lines. Plants showing kanamycin resistance were checked for luciferase activity by growing transgenic plants in MS medium for 10 days and then transferring the whole seedlings into test tubes. Luminescence measurements were performed by placing the test tubes in the light-tight housing of the luminometer reader (Dynatech). Experimental solutions with luciferin substrate with and without 1 mM ATP were injected by an automatic injector, and after 3 seconds counting started at 0.2 second time intervals.
Imaging of Luminescence in Ecto-luciferase Plants: Ecto-luciferase seeds were surface-sterilized, stratified in the dark in 4° C. for at least three days and then planted directly on a cellophane membrane placed upon solidified MS with 1.0% (w/v) agar. Planted plates were placed upright in a culture chamber and grown at 23° C. under 24-h fluorescent light for 7 days. Plates were then reoriented so that the solidified MS medium was at the bottom of the plate and the seedling was able to grow up into the empty space of the petri dish. Seedlings were then allowed to mature for up to 4 weeks under identical temperature and light settings. For “dark” studies petri dishes of 3-4 week old plants were placed in a dark chamber for 24 hours prior to use in the studies.
Mature basal leaves were excised from x-luc1 and x-luc9 plants 3-4 weeks old. Peels were taken and then immediately floated with the abaxial side up in 40 μL, of Arabidopsis leaf buffer on a microscope slide and the chemical being tested in either light or dark conditions depending on the experimental setup. The placing of the peels within their respective solution was considered time zero. Peels were treated for a minimum of 5 minutes before luciferin and flash buffer were added to the solution. […] Luminescence was integrated over 120 seconds, High Gain, Read Out set to slow, using 4×4 pixel binning with Cosmic Suppression on, Background Correction off, and Flatfield Correction off with the filter set to Photo.
All luminescence analysis was conducted using the indiGO Analysis Software (version 2.0.0.26). All images consisted of a photographic image in grayscale with an overlaid luminescence image in pseudo color. […]

CC1=CC(=O)CC(C)(C)[C@@]1(O)/C=C/C(C)=C\C(=O)O [ABA, abscisic acid]
ecto-luciferase luminescence in the location of stomata, average (5 min, x-luc9 peels, open stomata, light): 3.57 cps
ecto-luciferase luminescence after return to control levels (after 15 min of continuous exposure): about 0.80 cps

Reference: patent publication US20140123342A1, “Regulation of Stomatal Apertures by Apyrases and Extracellular Nucleotides” (BOARD OF REGENTS, THE UNIVERSITY OF TEXAS SYSTEM, priority 2011, published 2014)
